Measurements published in US20250129087A1, “SALT CRYSTALS” (INTRA-CELLULAR THERAPIES, INC., priority 2022, published 2025).

How the values were obtained:
[1] = pH of the filtrated solutions (pH indication paper); type: physicochemical; details: pH of the filtrated solution
Procedure: (§1) Samples are filtered and diluted (in a mixture of acetonitrile/water (1/1)) for LC analysis. Solubilities are calculated with the use of a calibration line. Furthermore, the pH values of the filtrated solutions are determined using pH indication paper.

[2] = Aqueous solubility of the salt crystals (shaking in water for 24 hours, LC analysis); type: physicochemical; details: appearance of the sample after shaking in water for 24 hours (Slurry or Clear)
Procedure: as §1

Row | SMILES | pH [1] | other results
1 | CN1C(=O)c2c(nn(Cc3ccc(-c4cccc(F)n4)cc3)c2Nc2ccccc2)N2C1=N[C@@H]1CCC[C@@H]12.O=P(O)(O)O [Phosphate Salt Control] | 5 | 
2 | CN1C(=O)c2c(nn(Cc3ccc(-c4cccc(F)n4)cc3)c2Nc2ccccc2)N2C1=N[C@@H]1CCC[C@@H]12.O=C(O)c1ccccc1O [Salicylate Salt 2] | 4-5 | 
3 | CN1C(=O)c2c(nn(Cc3ccc(-c4cccc(F)n4)cc3)c2Nc2ccccc2)N2C1=N[C@@H]1CCC[C@@H]12.Cl [HCl Salt 3] | 3 | 
4 | CN1C(=O)c2c(nn(Cc3ccc(-c4cccc(F)n4)cc3)c2Nc2ccccc2)N2C1=N[C@@H]1CCC[C@@H]12.Cc1ccc(S(=O)(=O)O)cc1 [Tosylate Salt 1] | 1 | 
5 | CN1C(=O)c2c(nn(Cc3ccc(-c4cccc(F)n4)cc3)c2Nc2ccccc2)N2C1=N[C@@H]1CCC[C@@H]12.O=C(O)c1ccncc1 [Isonicotinate Salt 1] | 5 | 
6 | CC(=O)Nc1ccc(C(=O)O)cc1.CN1C(=O)c2c(nn(Cc3ccc(-c4cccc(F)n4)cc3)c2Nc2ccccc2)N2C1=N[C@@H]1CCC[C@@H]12 [Acetamido Benzoate Salt 1] |  | pH ([1]; listed as 4-acetamido-benzoate Salt 1): 5
7 | CN1C(=O)c2c(nn(Cc3ccc(-c4cccc(F)n4)cc3)c2Nc2ccccc2)N2C1=N[C@@H]1CCC[C@@H]12.O=C(O)c1ccc2ccccc2c1O [Xinafoate Salt 1] | 7 | 
8 | CN1C(=O)c2c(nn(Cc3ccc(-c4cccc(F)n4)cc3)c2Nc2ccccc2)N2C1=N[C@@H]1CCC[C@@H]12.O=C(O)c1cc(=O)[nH]c(=O)[nH]1.O=C(O)c1cc(=O)[nH]c(=O)[nH]1 [Orotate Salt 1] | 5 | 
9 | CN1C(=O)c2c(nn(Cc3ccc(-c4cccc(F)n4)cc3)c2Nc2ccccc2)N2C1=N[C@@H]1CCC[C@@H]12.O=C(O)C(Cl)Cl [Dichloroacetate Salt 1] | 4-5 | 
10 | CN1C(=O)c2c(nn(Cc3ccc(-c4cccc(F)n4)cc3)c2Nc2ccccc2)N2C1=N[C@@H]1CCC[C@@H]12.O=C(O)c1ccc2ccccc2c1O [Xinafoate Salt 3] | 7 | 
11 | CN1C(=O)c2c(nn(Cc3ccc(-c4cccc(F)n4)cc3)c2Nc2ccccc2)N2C1=N[C@@H]1CCC[C@@H]12.O=S(=O)(O)CCS(=O)(=O)O [Edisylate Salt 1] | 1 | 
12 | CCCCCCCCCCCC(=O)O.CN1C(=O)c2c(nn(Cc3ccc(-c4cccc(F)n4)cc3)c2Nc2ccccc2)N2C1=N[C@@H]1CCC[C@@H]12 [Laurate Salt 1] | 5 | 
13 | CN1C(=O)c2c(nn(Cc3ccc(-c4cccc(F)n4)cc3)c2Nc2ccccc2)N2C1=N[C@@H]1CCC[C@@H]12.Cl [HCl Salt 1] | 4 | 
14 | CN1C(=O)c2c(nn(Cc3ccc(-c4cccc(F)n4)cc3)c2Nc2ccccc2)N2C1=N[C@@H]1CCC[C@@H]12.Nc1ccc(C(=O)O)c(O)c1 [Aminosalicylate Salt 1] | 5 | Appearance [2]: Slurry
15 | CN1C(=O)c2c(nn(Cc3ccc(-c4cccc(F)n4)cc3)c2Nc2ccccc2)N2C1=N[C@@H]1CCC[C@@H]12.O=C(O)C(=O)O [Oxalate Salt 3] | 1 | 
16 | CN1C(=O)c2c(nn(Cc3ccc(-c4cccc(F)n4)cc3)c2Nc2ccccc2)N2C1=N[C@@H]1CCC[C@@H]12.CN1C(=O)c2c(nn(Cc3ccc(-c4cccc(F)n4)cc3)c2Nc2ccccc2)N2C1=N[C@@H]1CCC[C@@H]12.O=C(O)/C=C/C(=O)O [Fumarate Salt 1] | 2 | 
17 | CN1C(=O)c2c(nn(Cc3ccc(-c4cccc(F)n4)cc3)c2Nc2ccccc2)N2C1=N[C@@H]1CCC[C@@H]12.O=C(O)c1ccccc1O [Salicylate Salt 1] | 5 | 
18 | CC1(C)C2CCC1(CS(=O)(=O)O)C(=O)C2.CN1C(=O)c2c(nn(Cc3ccc(-c4cccc(F)n4)cc3)c2Nc2ccccc2)N2C1=N[C@@H]1CCC[C@@H]12 [Camsylate Salt 1] | 1 | 
19 | CN1C(=O)c2c(nn(Cc3ccc(-c4cccc(F)n4)cc3)c2Nc2ccccc2)N2C1=N[C@@H]1CCC[C@@H]12.O=C(O)CCCCC(=O)O [Adipate Salt 1] | 4 | 
20 | CC(=O)Nc1ccc(C(=O)O)cc1.CN1C(=O)c2c(nn(Cc3ccc(-c4cccc(F)n4)cc3)c2Nc2ccccc2)N2C1=N[C@@H]1CCC[C@@H]12 [Acetamido Benzoate Salt 2] |  | pH ([1]; listed as 4-acetamido-benzoate Salt 2): 4
21 | CN1C(=O)c2c(nn(Cc3ccc(-c4cccc(F)n4)cc3)c2Nc2ccccc2)N2C1=N[C@@H]1CCC[C@@H]12.O=C(O)CCC(=O)O [Succinate Salt 1] | 4 | 
22 | CN1C(=O)c2c(nn(Cc3ccc(-c4cccc(F)n4)cc3)c2Nc2ccccc2)N2C1=N[C@@H]1CCC[C@@H]12.O=C(O)C(=O)O [Oxalate Salt 1] | 4 | 
23 | CN1C(=O)c2c(nn(Cc3ccc(-c4cccc(F)n4)cc3)c2Nc2ccccc2)N2C1=N[C@@H]1CCC[C@@H]12.O=C(O)CCC(=O)O [Succinate Salt 2] | 4 | 
24 | CN1C(=O)c2c(nn(Cc3ccc(-c4cccc(F)n4)cc3)c2Nc2ccccc2)N2C1=N[C@@H]1CCC[C@@H]12.O=C(O)c1cccnc1 [Nicotinate Salt 1] | 5 | 
25 | CN1C(=O)c2c(nn(Cc3ccc(-c4cccc(F)n4)cc3)c2Nc2ccccc2)N2C1=N[C@@H]1CCC[C@@H]12.O=C(O)[C@@H](O)[C@H](O)[C@H](O)[C@@H](O)C(=O)O [Galactarate Salt 1] | 5 | 

Row | SMILES | pH [1] | other results
26 | CCCCCC(=O)O.CN1C(=O)c2c(nn(Cc3ccc(-c4cccc(F)n4)cc3)c2Nc2ccccc2)N2C1=N[C@@H]1CCC[C@@H]12 [Caproate Salt 1] | 5 | 
27 | CC1(C)C2CCC1(CS(=O)(=O)O)C(=O)C2.CN1C(=O)c2c(nn(Cc3ccc(-c4cccc(F)n4)cc3)c2Nc2ccccc2)N2C1=N[C@@H]1CCC[C@@H]12 [Camsylate Salt 2] | 1 | 
28 | CN1C(=O)c2c(nn(Cc3ccc(-c4cccc(F)n4)cc3)c2Nc2ccccc2)N2C1=N[C@@H]1CCC[C@@H]12.O=C(O)C(O)C(O)C(=O)O [Tartrate Salt 1] | 4-5 | 
29 | CCS(=O)(=O)O.CN1C(=O)c2c(nn(Cc3ccc(-c4cccc(F)n4)cc3)c2Nc2ccccc2)N2C1=N[C@@H]1CCC[C@@H]12 [Esylate Salt 1] | 5 | 
30 | CN1C(=O)c2c(nn(Cc3ccc(-c4cccc(F)n4)cc3)c2Nc2ccccc2)N2C1=N[C@@H]1CCC[C@@H]12.O=C(O)C(=O)O [Oxalate Salt 2] | 1 | 
31 | CN1C(=O)c2c(nn(Cc3ccc(-c4cccc(F)n4)cc3)c2Nc2ccccc2)N2C1=N[C@@H]1CCC[C@@H]12.O=C(O)c1ccc2ccccc2c1O [Xinafoate Salt 2] | 7 | 
32 | CN1C(=O)c2c(nn(Cc3ccc(-c4cccc(F)n4)cc3)c2Nc2ccccc2)N2C1=N[C@@H]1CCC[C@@H]12.O=C(O)C(O)c1ccccc1 [Mandelate Salt 2] | 4 | 
33 | CN1C(=O)c2c(nn(Cc3ccc(-c4cccc(F)n4)cc3)c2Nc2ccccc2)N2C1=N[C@@H]1CCC[C@@H]12.O=S(=O)(O)c1ccccc1 [Besylate Salt 1] | 1 | 
34 | CN1C(=O)c2c(nn(Cc3ccc(-c4cccc(F)n4)cc3)c2Nc2ccccc2)N2C1=N[C@@H]1CCC[C@@H]12.Cc1ccc(S(=O)(=O)O)cc1 [Tosylate Salt 2] | 5 | 
35 | CN1C(=O)c2c(nn(Cc3ccc(-c4cccc(F)n4)cc3)c2Nc2ccccc2)N2C1=N[C@@H]1CCC[C@@H]12.CN1C(=O)c2c(nn(Cc3ccc(-c4cccc(F)n4)cc3)c2Nc2ccccc2)N2C1=N[C@@H]1CCC[C@@H]12.O=C(O)CCCCC(=O)O [Adipate Salt 2] | 4-5 | 
36 | CN1C(=O)c2c(nn(Cc3ccc(-c4cccc(F)n4)cc3)c2Nc2ccccc2)N2C1=N[C@@H]1CCC[C@@H]12.Cl [HCl Salt 4] | 4 | 
37 | CCCCCCCC(=O)O.CN1C(=O)c2c(nn(Cc3ccc(-c4cccc(F)n4)cc3)c2Nc2ccccc2)N2C1=N[C@@H]1CCC[C@@H]12 [Caprylate Salt 1] | 5 | 
38 | CN1C(=O)c2c(nn(Cc3ccc(-c4cccc(F)n4)cc3)c2Nc2ccccc2)N2C1=N[C@@H]1CCC[C@@H]12.O=S(=O)(O)O [Sulfate Salt 1] | 1 | 
39 | CN1C(=O)c2c(nn(Cc3ccc(-c4cccc(F)n4)cc3)c2Nc2ccccc2)N2C1=N[C@@H]1CCC[C@@H]12.O=C(O)CCC(=O)C(=O)O [Oxo-glutarate Salt 1] | 3 | 
40 | CCC(=O)O.CN1C(=O)c2c(nn(Cc3ccc(-c4cccc(F)n4)cc3)c2Nc2ccccc2)N2C1=N[C@@H]1CCC[C@@H]12 [Propionate Salt 1] | 5 | 
41 | CN1C(=O)c2c(nn(Cc3ccc(-c4cccc(F)n4)cc3)c2Nc2ccccc2)N2C1=N[C@@H]1CCC[C@@H]12.O=C(O)C[C@H](O)C(=O)O [Malate Salt 1] | 4 | 
42 | CN1C(=O)c2c(nn(Cc3ccc(-c4cccc(F)n4)cc3)c2Nc2ccccc2)N2C1=N[C@@H]1CCC[C@@H]12.O=C(O)C(F)(F)F [Trifluoroacetate Salt 1] | 7 | 
43 | CCCCCCCCCCCCCCCC(=O)O.CN1C(=O)c2c(nn(Cc3ccc(-c4cccc(F)n4)cc3)c2Nc2ccccc2)N2C1=N[C@@H]1CCC[C@@H]12 [Palmitate Salt 1] | 5-6 | 
44 | CN1C(=O)c2c(nn(Cc3ccc(-c4cccc(F)n4)cc3)c2Nc2ccccc2)N2C1=N[C@@H]1CCC[C@@H]12.CS(=O)(=O)O [Mesylate Salt 1] | 5 | 
45 | CN1C(=O)c2c(nn(Cc3ccc(-c4cccc(F)n4)cc3)c2Nc2ccccc2)N2C1=N[C@@H]1CCC[C@@H]12.O=C(O)c1ccccc1 [Benzoate Salt 1] | 5 | 
46 | CN1C(=O)c2c(nn(Cc3ccc(-c4cccc(F)n4)cc3)c2Nc2ccccc2)N2C1=N[C@@H]1CCC[C@@H]12.O=C(O)CCCCC(=O)O [Adipate Salt 3] | 4-5 | 
47 | CN1C(=O)c2c(nn(Cc3ccc(-c4cccc(F)n4)cc3)c2Nc2ccccc2)N2C1=N[C@@H]1CCC[C@@H]12.O=C(O)C(O)c1ccccc1 [Mandelate Salt 1] | 2 | 
48 | CC(O)C(=O)O.CN1C(=O)c2c(nn(Cc3ccc(-c4cccc(F)n4)cc3)c2Nc2ccccc2)N2C1=N[C@@H]1CCC[C@@H]12 [Lactate Salt 1] | 4-5 | 
49 | CN1C(=O)c2c(nn(Cc3ccc(-c4cccc(F)n4)cc3)c2Nc2ccccc2)N2C1=N[C@@H]1CCC[C@@H]12.O=S(=O)(O)c1cccc2c(S(=O)(=O)O)cccc12 [Napadisylate Salt 1] | 1 | 
50 | CN1C(=O)c2c(nn(Cc3ccc(-c4cccc(F)n4)cc3)c2Nc2ccccc2)N2C1=N[C@@H]1CCC[C@@H]12.Cl [HCl Salt 2] | 4-5 | 
